# According to the supplement of paper PMC10307832:
# Legend:
# Experiment in all cases: relative viability (nuclei count vs DMSO), 5 days (fraction); higher = more cells survive
# NVP-TAE684 + Trametinib = compound: COc1cc(N2CCC(N3CCN(C)CC3)CC2)ccc1Nc1ncc(Cl)c(Nc2ccccc2S(=O)(=O)C(C)C)n1 [NVP-TAE684] + CC(=O)Nc1cccc(-n2c(=O)n(C3CC3)c(=O)c3c(Nc4ccc(I)cc4F)n(C)c(=O)c(C)c32)c1 [Trametinib] (partner 0.02 µM)
# Summary of the method: (§1)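 Relative viability equals treated-well nuclei counts divided by vehicle-well nuclei counts. Counts came from 4× images of lung cancer cell lines grown in 1536-well plates for 5 days after pin-tool dosing on the day after seeding. Dosing used one drug alone or a fixed anchor-drug dose plus five library-drug doses (not always all listed) in √10 steps, and values are medians of duplicate plates.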
# NVP-TAE684 + Palbociclib = compound: COc1cc(N2CCC(N3CCN(C)CC3)CC2)ccc1Nc1ncc(Cl)c(Nc2ccccc2S(=O)(=O)C(C)C)n1 [NVP-TAE684] + CC(=O)c1c(C)c2cnc(Nc3ccc(N4CCNCC4)cn3)nc2n(C2CCCC2)c1=O [Palbociclib] (partner 0.5 µM)
# Summary of the method: as §1
# NVP-TAE684 + Foretinib = compound: COc1cc(N2CCC(N3CCN(C)CC3)CC2)ccc1Nc1ncc(Cl)c(Nc2ccccc2S(=O)(=O)C(C)C)n1 [NVP-TAE684] + COc1cc2c(Oc3ccc(NC(=O)C4(C(=O)Nc5ccc(F)cc5)CC4)cc3F)ccnc2cc1OCCCN1CCOCC1 [Foretinib] (partner 0.25 µM)
# Summary of the method: as §1
# Vandetanib + Crizotinib = compound: COc1cc2/c(=N/c3ccc(Br)cc3F)nc[nH]c2cc1OCC1CCN(C)CC1 [Vandetanib] + C[C@@H](Oc1cc(-c2cnn(C3CCNCC3)c2)cnc1N)c1c(Cl)ccc(F)c1Cl [Crizotinib] (partner 1 µM)
# Summary of the method: as §1
# CUDC-101 + Trametinib = compound: C#Cc1cccc(Nc2ncnc3cc(OC)c(OCCCCCCC(=O)NO)cc23)c1 [CUDC-101] + CC(=O)Nc1cccc(-n2c(=O)n(C3CC3)c(=O)c3c(Nc4ccc(I)cc4F)n(C)c(=O)c(C)c32)c1 [Trametinib] (partner 0.02 µM)
# Summary of the method: as §1
Cell Line,relative viability (NVP-TAE684 + Trametinib; first compound 0.2 µM),relative viability (NVP-TAE684 + Trametinib; first compound 0.6325 µM),relative viability (NVP-TAE684 + Trametinib; first compound 2 µM),relative viability (NVP-TAE684 + Palbociclib; first compound 0.2 µM),relative viability (NVP-TAE684 + Palbociclib; first compound 0.6325 µM),relative viability (NVP-TAE684 + Palbociclib; first compound 2 µM),relative viability (NVP-TAE684 + Foretinib; first compound 0.2 µM),relative viability (NVP-TAE684 + Foretinib; first compound 0.6325 µM),relative viability (NVP-TAE684 + Foretinib; first compound 2 µM),relative viability (Vandetanib + Crizotinib; first compound 0.02 µM),relative viability (Vandetanib + Crizotinib; first compound 0.06325 µM),relative viability (Vandetanib + Crizotinib; first compound 0.2 µM),relative viability (Vandetanib + Crizotinib; first compound 0.6325 µM),relative viability (Vandetanib + Crizotinib; first compound 2 µM),relative viability (CUDC-101 + Trametinib; first compound 0.01 µM),relative viability (CUDC-101 + Trametinib; first compound 0.03162 µM),relative viability (CUDC-101 + Trametinib; first compound 0.1 µM),relative viability (CUDC-101 + Trametinib; first compound 0.3162 µM),relative viability (CUDC-101 + Trametinib; first compound 1 µM)
LU99A,0.579,0.616,0.349,0.373,0.429,0.254,0.873,0.83,0.365,0.546,0.498,0.63,0.522,0.577,0.444,0.539,0.617,0.535,0.374
LXF-289,0.608,0.7,0.624,0.56,0.618,0.643,1.05,0.958,0.715,0.801,0.789,0.827,0.828,0.792,0.689,0.671,0.659,0.605,0.539
NCI-H23,0.493,0.333,0.208,0.439,0.5,0.241,1.03,0.769,0.356,0.64,0.573,0.514,0.527,0.451,0.338,0.357,0.413,0.373,0.351
NCI-H322M,0.589,0.447,0.294,0.425,0.43,0.375,0.828,0.827,0.565,0.899,0.952,0.937,0.88,0.897,0.507,0.477,0.517,0.44,0.411
NCI-H358,0.147,0.107,0.0912,0.125,0.121,0.0895,0.736,0.672,0.099,0.659,0.636,0.137,0.397,0.321,0.142,0.135,0.119,0.143,0.115
NCI-H441,0.359,0.333,0.263,0.182,0.192,0.154,0.892,0.832,0.382,0.926,0.751,0.687,0.88,0.856,0.639,0.439,0.371,0.65,0.41
NCI-H460,0.173,0.16,0.0273,0.183,0.168,0.098,1.2,1.02,0.817,0.902,0.786,0.0179,0.972,0.804,0.108,0.224,0.227,0.182,0.0486
NCI-H520,0.73,0.695,0.204,0.227,0.267,0.152,0.712,0.979,0.51,0.923,0.894,0.859,0.772,0.655,0.572,0.688,0.788,0.674,0.251
NCI-H647,0.483,0.489,0.216,0.352,0.337,0.223,1.09,1.21,1.16,1.06,1.07,1.1,1.06,0.981,0.461,0.411,0.543,0.538,0.443
NCI-H650,1.08,0.951,0.726,0.313,0.319,0.318,0.983,1,0.753,0.709,0.703,0.758,0.605,0.724,1.06,0.864,1.08,1.16,0.911
NCI-H661,0.552,0.616,0.563,0.423,0.378,0.424,1.19,1.05,0.779,0.969,,0.99,1.06,1.03,0.566,0.529,0.609,0.542,0.374
NCI-H727,0.406,0.349,0.308,0.638,0.623,0.516,0.855,0.818,0.38,0.821,0.885,0.786,0.65,0.687,0.394,0.374,0.418,0.371,0.353
NCI-H838,0.566,0.407,0.202,0.199,0.197,0.141,0.971,1.05,0.628,0.819,0.846,0.898,0.819,0.724,0.579,0.504,0.544,0.591,0.423
NCI-H1355,0.399,0.398,0.3,0.366,0.368,0.269,0.9,0.989,0.428,1.03,0.976,0.637,0.996,1.04,0.423,0.399,0.411,0.46,0.317
NCI-H1437,0.523,0.444,0.225,0.321,0.291,0.231,1.25,1.27,1.29,0.842,0.894,0.895,0.958,0.954,0.54,0.528,0.498,0.468,0.263
NCI-H1650,0.522,0.507,0.221,0.297,0.299,0.211,1.06,1.14,0.556,0.943,0.806,,0.736,0.581,0.637,0.477,0.494,0.588,0.372
NCI-H1651,,0.86,0.771,0.506,0.572,0.468,0.802,0.883,0.774,0.837,0.851,0.831,0.898,0.781,0.863,0.786,0.806,0.845,0.8
NCI-H1666,0.818,0.836,0.714,0.642,0.713,0.617,0.973,0.899,0.801,1.05,0.894,0.974,0.859,0.793,0.842,0.931,0.818,0.911,0.831
NCI-H1734,0.696,0.673,0.517,0.375,0.324,0.316,0.802,0.824,0.354,0.737,0.618,0.67,0.639,0.648,0.694,0.594,0.761,0.786,0.523
NCI-H1755,0.769,0.846,0.729,0.441,0.472,0.401,1.03,0.897,0.761,0.853,0.843,0.789,0.85,0.829,0.794,0.761,0.784,0.792,0.812
NCI-H1915,0.298,0.304,0.507,0.558,0.525,0.491,1.04,1.1,0.902,0.842,0.889,0.933,0.857,0.892,0.308,0.287,0.305,0.314,0.273
NCI-H1944,0.41,0.41,0.364,0.313,0.321,0.236,0.847,0.929,0.533,1.01,1.1,1.15,1.07,0.942,0.375,0.422,0.415,0.388,0.373
NCI-H1975,0.325,0.335,0.215,0.591,0.589,0.37,1.2,0.911,0.497,0.887,0.943,0.922,0.994,0.852,0.38,0.322,0.347,0.692,0.319
NCI-H1993,0.359,0.461,0.521,0.437,0.614,0.475,0.766,0.746,0.553,0.924,0.77,0.861,0.77,0.72,0.474,0.682,0.546,0.527,0.553
NCI-H2009,0.302,0.234,0.178,0.2,0.183,0.203,1.07,1.14,1.09,1.06,0.964,1.08,1.02,1.03,0.307,0.245,0.274,0.34,0.292
NCI-H2023,0.462,0.498,0.155,0.291,0.358,0.116,0.656,0.739,0.461,0.661,0.556,0.624,0.49,0.499,0.615,0.542,0.578,0.551,0.428
NCI-H2085,0.579,0.503,0.4,0.463,0.512,0.478,0.987,0.967,0.485,0.807,0.841,0.932,0.937,0.875,0.607,0.496,0.706,0.604,0.505
NCI-H2087,0.175,0.211,0.168,0.206,0.22,0.248,1.05,1.2,0.638,0.785,0.949,0.835,0.88,0.904,0.224,0.225,0.204,0.195,0.185
